In general, IC50 refers to the point on the concentration scale where inhibition reaches its midpoint. A higher IC50 goes with lower potency.

Test [1] has as its system PLC5 cells (a hepatocellular carcinoma cell line). Briefly: Cytotoxicity, MTT cell viability assay. It counts as cell-based. The conditions noted are these: 72 h exposure. The protocol:
PLC5 cells (a hepatocellular carcinoma cell line) were seeded at 5×10^3 cells per well in 96-well plates. Then, cells were exposed to SC derivatives at the indicated doses for 72 h. After that, cells were incubated with MTT (1 mg/ml) (Sigma-Aldrich, St. Louis, Mo.) for 2 h at 37° C. Cell viability was then assessed by measuring the absorbance at 570 nm using a microplate reader.
For orientation: Tetrazolium dyes change colour on reduction, which living cells bring about.

In test [2] the target is Recombinant SHP-1 protein (Homo sapiens, UniProt P29350). Briefly: SHP-1 phosphatase activity assay (RediPlate 96 EnzChek Tyrosine Phosphatase Assay kit). Format: biochemical. To be noted: SC derivatives at 1 μM for 2 hr; recombinant SHP-1 25 ng; control DMSO = 100; mean±SD (N=3). Here is the method:
Effects of SC Derivatives on Phosphatase Activity in Recombinant SHP-1 RediPlate 96 EnzChek Tyrosine Phosphatase Assay kit (R-22067) was used for SHP-1 activity assay (Molecular Probes). Recombinant SHP-1 protein (25 ng) was reacted with SC derivatives at 1 μM for 2 hr. Then the SHP-1 phosphatase activity assay was performed according to the user's manual and the absorbance was measured at 465 nm. The control group was DMSO, which functioned as the solvent of the SC derivatives. The values were expressed by mean±SD (N=3).

Sequence of Recombinant SHP-1 protein (P29350 whole entry): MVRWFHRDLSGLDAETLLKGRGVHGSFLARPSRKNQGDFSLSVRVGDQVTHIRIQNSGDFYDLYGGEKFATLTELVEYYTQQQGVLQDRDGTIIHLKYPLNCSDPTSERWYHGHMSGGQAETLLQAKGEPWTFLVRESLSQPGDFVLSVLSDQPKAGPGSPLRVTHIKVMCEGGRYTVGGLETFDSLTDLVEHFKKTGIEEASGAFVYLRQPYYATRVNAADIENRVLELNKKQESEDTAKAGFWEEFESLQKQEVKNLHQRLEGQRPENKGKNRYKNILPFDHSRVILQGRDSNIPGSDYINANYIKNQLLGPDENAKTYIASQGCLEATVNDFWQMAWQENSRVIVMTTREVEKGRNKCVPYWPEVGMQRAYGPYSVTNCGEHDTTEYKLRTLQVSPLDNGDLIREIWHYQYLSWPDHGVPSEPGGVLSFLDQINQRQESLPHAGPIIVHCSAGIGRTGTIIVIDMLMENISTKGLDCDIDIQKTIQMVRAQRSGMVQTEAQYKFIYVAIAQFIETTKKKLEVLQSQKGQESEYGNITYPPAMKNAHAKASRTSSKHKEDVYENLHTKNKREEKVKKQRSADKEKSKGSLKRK

The molecule `C#Cc1cccc(NC(=O)Nc2cccc(Oc3ccc(C#N)cc3)c2)c1` [compound 65, 1-(3-(4-cyanophenoxy)phenyl)-3-(3-ethynylphenyl)urea] showed an IC50 in test [1] of 1410 nM. Further, the “SHP-1 Activity (% of control)” value in test [2] is 84.35 ± 22.40 % of control.
As for `C#Cc1cccc(NC(=O)Nc2ccc(C)c(Oc3ccc(C#N)cc3)c2)c1` [compound 66, 1-(3-(4-cyanophenoxy)-4-methylphenyl)-3-(3-ethynylphenyl)urea], in test [1], the IC50 is > 10000 nM. Besides, the “SHP-1 Activity (% of control)” value in test [2] is on record as 93.26 ± 9.30 % of control.
For `N#Cc1ccc(Oc2cccc(NC(=O)C3(C(=O)Nc4cccc(Oc5ccc(C#N)cc5)c4)CC3)c2)cc1` [compound 67, N, N′-bis(3-(4-cyanophenoxy)phenyl)cyclopropane-1,1-dicarboxamide] the same measures were > 10000 nM and 94.05 ± 16.11 % of control.
Turning to `Cc1ccc(NC(=O)C2(C(=O)O)CC2)cc1Oc1ccc(C#N)cc1` [compound 68], in test [1], the concentration for half-maximal inhibition (IC50) is > 10000 nM. Further, in test [2], the “SHP-1 Activity (% of control)” value is recorded as 84.36 ± 11.31 % of control.
Turning to `N#Cc1ccc(Oc2cccc(NC(=O)C(=O)Nc3ccc(Cl)c(C(F)(F)F)c3)c2)cc1` [compound 69, N^1-(4-chloro-3-(trifluoromethyl)phenyl)-N^2-(3-(4-cyanophenoxy)phenyl) oxalamide], the IC50 in test [1] is > 10000 nM. For the same molecule, in test [2], the “SHP-1 Activity (% of control)” value was 95.16 ± 6.91 % of control.
Take `N#CC1=CCC(OC2=CC(NC(=O)C(=O)Nc3cccc(Oc4ccc(C#N)cc4)c3)CC=C2)C=C1` (stereo not shown) [compound 70, N^1-(3-((4-cyanocyclohexa-2,4-dien-1-yl)oxy)cyclohexa-2,4-dien-1-yl)-N^2-(3-(4-cyanophenoxy)phenyl)oxalamide]: the IC50 in test [1] is > 10000 nM. Moreover, the “SHP-1 Activity (% of control)” value in test [2] is 91.23 ± 15.95 % of control.
The corresponding values for `CC1=CCC(NC(=O)C(=O)Nc2ccc(C)c(Oc3ccc(C#N)cc3)c2)C=C1OC1C=CC(C#N)=CC1` (stereo not shown) [compound 71, N^1-(3-((4-cyanocyclohexa-2,4-dien-1-yl)oxy)-4-methylcyclohexa-2,4-dien-1-yl)-N^2-(3-(4-cyanophenoxy)-4-methylphenyl)oxalamide] are 210 nM and 87.54 ± 10.21 % of control.
As for `N#Cc1ccc(Oc2ccc3cccc(NC(=O)Nc4ccc(Cl)c(C(F)(F)F)c4)c3c2)cc1` [compound 72, 1-(4-chloro-3-(trifluoromethyl)phenyl)-3-(7-(4-cyanophenoxy)naphthalen-1-yl)urea], the IC50 in test [1] was determined as 2250 nM. In addition, the “SHP-1 Activity (% of control)” value in test [2] was 131.47 ± 14.99 % of control.
For `N#Cc1ccc(Oc2ccc3cccc(NC(=O)Nc4cccc5ccc(Oc6ccc(C#N)cc6)cc45)c3c2)cc1` [compound 73, 1,3-bis(7-(4-cyanophenoxy)naphthalen-1-yl)urea] the same measures were > 10000 nM and 102.24 ± 17.36 % of control.
Take `N#Cc1ccc(Oc2ccc3cccc(NC(=O)C4(C(=O)O)CC4)c3c2)cc1` [compound 75, 1-((7-(4-cyanophenoxy)naphthalen-1-yl)carbamoyl)cyclopropane carboxylic acid]: the IC50 in test [1] was > 10000 nM. Further, the “SHP-1 Activity (% of control)” value in test [2] was 111.30 ± 9.50 % of control.
As for `O=C(Nc1ccc(Cl)c(C(F)(F)F)c1)Nc1ccc(Cl)c(C(F)(F)F)c1` [compound 78, 1,3-bis(4-chloro-3-(trifluoromethyl)phenyl)urea], the IC50 in test [1] is > 10000 nM. The “SHP-1 Activity (% of control)” value in test [2] is on record as 113.65 ± 13.93 % of control.
As to `N#Cc1ccc(Oc2cccc(NC(=O)Nc3ccc(Cl)c(C(F)(F)F)c3)c2)cc1Cl` [compound 79, 1-(4-chloro-3-(trifluoromethyl)phenyl)-3-(3-(3-chloro-4-cyanophenoxy)phenyl)urea], half-maximal inhibition in test [1] (IC50) required 820 nM. Further, the “SHP-1 Activity (% of control)” value in test [2] is reported as 112.25 ± 0.60 % of control.
Take `N#Cc1ccc(Oc2cccc(NC(=O)Nc3ccc(Cl)c(C(F)(F)F)c3)c2)c(F)c1` [compound 80, 1-(4-chloro-3-(trifluoromethyl)phenyl)-3-(3-(4-cyano-2-fluorophenoxy)phenyl) urea]: in test [1], the IC50 was found to be 1670 nM. The “SHP-1 Activity (% of control)” value in test [2] is “X91.93 ± 8.09 % of control”.
Molecule `Cc1ccc(NC(=O)Nc2ccc(C)c(Oc3ccc(C#N)c(Cl)c3)c2)cc1Oc1ccc(C#N)c(Cl)c1` [compound 82, 1,3-bis(3-(3-chloro-4-cyanophenoxy)-4-methylphenyl)urea] gave an IC50 in test [1] of 4140 nM. Besides, the “SHP-1 Activity (% of control)” value in test [2] is 92.68 ± 5.66 % of control.
In turn, `Cc1ccc(NC(=O)Nc2ccc(C)c(Oc3ccc(C#N)c(Br)c3)c2)cc1Oc1ccc(C#N)c(Br)c1` [compound 83, 1,3-bis(3-(3-bromo-4-cyanophenoxy)-4-methylphenyl)urea] gave an IC50 in test [1] of 250 nM. Also, the “SHP-1 Activity (% of control)” value in test [2] was 110.68 ± 13.38 % of control.
Consider `Cc1ccc(NC(=O)Nc2ccc(C)c(Oc3ccc(C#N)c(F)c3)c2)cc1Oc1ccc(C#N)c(F)c1` [compound 84, 1,3-bis(3-(4-cyano-3-fluorophenoxy)-4-methylphenyl)urea], for which the IC50 in test [1] is > 10000 nM. In test [2], the “SHP-1 Activity (% of control)” value is 108.62 ± 10.55 % of control.
For `Cc1ccc(NC(=O)Nc2ccc(C)c(Oc3ccc(C#N)cc3F)c2)cc1Oc1ccc(C#N)cc1F` [compound 85, 1,3-bis(3-(4-cyano-2-fluorophenoxy)-4-methylphenyl)urea] the same measures were > 10000 nM and 91.42 ± 10.47 % of control.
Take `Cc1ccc(NC(=O)Nc2ccc(C)c(Oc3ccc(C#N)nc3)c2)cc1Oc1ccc(C#N)nc1` [compound 86, 1,3-bis(3-((6-cyanopyridin-3-yl)oxy)-4-methylphenyl)urea]: the IC50 in test [1] was > 10000 nM. In test [2], the “SHP-1 Activity (% of control)” value is 81.06 ± 7.61 % of control.
In the case of `Cc1ccc(NC(=O)Nc2ccc(Cl)c(C(F)(F)F)c2)cc1Oc1ccc(C#N)nc1` [compound 87, 1-(4-chloro-3-(trifluoromethyl)phenyl)-3-(3-((6-cyanopyridin-3-yl)oxy)-4-methylphenyl)urea], the IC50 in test [1] stood at 970 nM. In addition, the “SHP-1 Activity (% of control)” value in test [2] is listed as 264.67 ± 32.11 % of control.
The corresponding values for `Cc1ccc(NC(=O)Nc2ccc(Cl)c(C(F)(F)F)c2)cc1Oc1ccc(C#N)c(F)c1` [compound 88, 1-(4-chloro-3-(trifluoromethyl)phenyl)-3-(3-(4-cyano-3-fluorophenoxy)-4-methylphenyl)urea] are 1050 nM and 100.48 ± 13.31 % of control.
Regarding `Cc1ccc(NC(=O)Nc2ccc(Cl)c(C(F)(F)F)c2)cc1Oc1ccc(C#N)c(Br)c1` [compound 89, 1-(3-(3-bromo-4-cyanophenoxy)-4-methylphenyl)-3-(4-chloro-3-(trifluoromethyl)phenyl)urea], the IC50 in test [1] was 830 nM. Further, the “SHP-1 Activity (% of control)” value in test [2] is 143.45 ± 15.17 % of control.
For `Cc1cc(Oc2ccc(C#N)cc2)ccc1NC(=O)Nc1ccc(Oc2ccc(C#N)cc2)cc1C` [compound 90, 1,3-bis(4-(4-cyanophenoxy)-2-methylphenyl)urea] the same measures were > 10000 nM and 95.78 ± 10.66 % of control.
On to `N#Cc1ccc(Oc2ccc(Cl)c(NC(=O)Nc3cc(Oc4ccc(C#N)cc4)ccc3Cl)c2)cc1` [compound 91, 1,3-bis(2-chloro-5-(4-cyanophenoxy)phenyl)urea], for which the IC50 in test [1] is > 10000 nM. Besides, in test [2], the “SHP-1 Activity (% of control)” value is reported as 99.99 ± 4.52 % of control.
For `N#Cc1ccc(Oc2cc(NC(=O)Nc3ccc(Cl)c(Oc4ccc(C#N)cc4)c3)ccc2Cl)cc1` [compound 92, 1,3-bis(4-chloro-3-(4-cyanophenoxy)phenyl)urea] the same measures were > 10000 nM and 252.27 ± 10.78 % of control.
For `Cc1ccc(Oc2ccc(C#N)cc2)cc1NC(=O)Nc1cc(Oc2ccc(C#N)cc2)ccc1C` [compound 93, 1,3-bis(5-(4-cyanophenoxy)-2-methylphenyl)urea], the IC50 in test [1] was > 10000 nM. The “SHP-1 Activity (% of control)” value in test [2] is given as 94.07 ± 0.82 % of control.
The corresponding values for `Cc1ccc(NC(=O)Nc2ccc(C)c(Oc3ccc(/C(N)=N/O)cc3)c2)cc1Oc1ccc(/C(N)=N/O)cc1` [compound 94, (1Z,1′Z)-4,4′-(((carbonylbis(azanediyl))bis(2-methyl-5,1-phenylene))bis(oxy))bis(N′-hydroxybenzimidamide)] are > 10000 nM and 114.65 ± 13.55 % of control.
The corresponding values for `N#Cc1ccc(Oc2ccc(NC(=O)Nc3ccc(Cl)c(C(F)(F)F)c3)c(F)c2)cc1` [compound 96, 1-(4-chloro-3-(trifluoromethyl)phenyl)-3-(4-(4-cyanophenoxy)-2-fluorophenyl)urea] are 410 nM and 194.52 ± 17.89 % of control.
Consider `N#Cc1ccc(Oc2ccc(F)c(NC(=O)Nc3cc(Oc4ccc(C#N)cc4)ccc3F)c2)cc1` [compound 97, 1,3-bis(5-(4-cyanophenoxy)-2-fluorophenyl)urea], for which the IC50 in test [1] is > 10000 nM. Further, in test [2], the “SHP-1 Activity (% of control)” value is on record as 127.01 ± 9.02 % of control.
For `Cc1cc(Oc2cc(NC(=O)Nc3ccc(C)c(Oc4ccc(C#N)c(C)c4)c3)ccc2C)ccc1C#N` [compound 98, 1,3-bis(3-(4-cyano-3-methylphenoxy)-4-methylphenyl)urea] the same measures were 140 nM and 88.80 ± 14.30 % of control.

The values are drawn from patent US10745346B2, “Agonists of protein tyrosine phosphatase SHP-1” (priority 2015, dated 2020).
